Results: patent publication US20260191858A1, “COMBINATION THERAPIES” (Kallyope, Inc., priority 2022, published 2026)

These molecules were tested against T1, human GPR119 (hGPR119) (Homo sapiens, UniProt Q8TDV5) (assay: cAMP accumulation assay in CHO-K1 cells stably expressing hGPR119). Conditions: cAMP HTRF, 60 minutes.
T1 construct: expressed in transfected cells; host or cells: CHO-K1
T1 sequence (Q8TDV5 1-335): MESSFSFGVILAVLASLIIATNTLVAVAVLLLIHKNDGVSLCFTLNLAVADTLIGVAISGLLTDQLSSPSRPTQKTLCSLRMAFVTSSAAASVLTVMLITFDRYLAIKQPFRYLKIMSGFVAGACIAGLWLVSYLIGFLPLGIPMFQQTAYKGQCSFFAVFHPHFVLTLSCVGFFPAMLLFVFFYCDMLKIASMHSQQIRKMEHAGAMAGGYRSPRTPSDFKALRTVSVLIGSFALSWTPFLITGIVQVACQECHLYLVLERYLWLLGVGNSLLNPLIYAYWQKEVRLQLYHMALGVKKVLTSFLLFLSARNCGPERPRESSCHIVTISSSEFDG
Type: cell-based
Description: CHO-K1 cells stably expressing human GPR119 (hGPR119) were prepared by transfection of a GPR119-carrying plasmid using Lipofectamine 2000 (following manufacturer instructions). A stable cell line was established using the limiting dilution method with geneticine selection. Assay-ready frozen (ARF) cells were prepared and used throughout the study.
The assay was performed in a 384-well plate format using the CAMP Gs dynamic assay kit from Cisbio. ARF cells expressing hGPR119 were thawed, washed and then resuspended in CAMP stimulation buffer at a cell density of 1.1×10^6 cells/mL. Cells were plated at a density of ~10,000 cells/well (9 μL/well). Dose response curves for the tested compounds were prepared in a cAMP stimulation buffer, containing 0.1% Tween 80 at 4 fold the final concentration. The compounds were then transferred to the cell plates using BRAVO (3 μL/well) and the plates were incubated for 60 minutes at 37° C./5% CO2. Detection buffer (10 μL, prepared as described in the CAMP Gs dynamic kit) were added to each well, and the plates were incubated at ambient temperature for 1 hr.
RT-FRET was measured using a ClarioSTAR plate reader, calculating the ratio between emissions at 665 nm and 620 nm (HTRF ratio). The HTRF ratio for positive (Max) and negative (Min) controls were used to normalize HTRF data and generate values for % activity. EC50 and Max activity values were determined using a standard 4-parameter fit.

“1-[2-[2-fluoro-4-[3-[1-[5- (methoxymethyl)pyrimidin-2-yl]-4- piperidyl]propoxy]phenyl]acetyl]-N-[2-[2- hydroxy-1,1- bis(hydroxymethyl)ethyl]carbamoylamino] ethyl]azetidine-3-carboxamide [Compound A2]” and `O=C(NCCO[C@H]1O[C@H](CO)[C@@H](O)[C@H](O)[C@@H]1O)C1CN(C(=O)Cc2ccc(OCCCC3CCN(c4ncc(Cl)cn4)CC3)cc2F)C1` (racemic) [Compound A6, 1-[2-[4-[3-[1-(5-chloropyrimidin-2-yl)-4-piperidyl]propoxy]-2-fluoro-phenyl]acetyl]-N-[2-[rac-(2S,3S,4S,5S,6R)-3,4,5-trihydroxy-6-(hydroxymethyl)tetrahydropyran-2-yl]oxyethyl]azetidine-3-carboxamide] fall in the same range of EC50: 100 to 1000 nM for the first, 100 to 1000 nM for the second.

`O=C(NC[C@H](O)[C@@H](O)[C@H](O)[C@H](O)CO)C1CN(C(=O)Cc2ccc(OCCCC3CCN(c4ncc(Cl)cn4)CC3)cc2F)C1` (racemic) [Compound A10, 1-[2-[4-[3-[1-(5-chloropyrimidin-2-yl)-4-piperidyl]propoxy]-2-fluoro-phenyl]acetyl]-N-[rac-(2S,3R,4R,5R)-2,3,4,5,6-pentahydroxyhexyl]azetidine-3-carboxamide] and `O=C(CC1CN(C(=O)Cc2ccc(OCCCC3CCN(c4ncc(Cl)cn4)CC3)cc2F)C1)NC[C@H](O)[C@@H](O)[C@H](O)[C@H](O)CO` (racemic) [Compound A11, 2-[1-[2-[4-[3-[1-(5-chloropyrimidin-2-yl)-4-piperidyl]propoxy]-2-fluoro-phenyl]acetyl]azetidin-3-yl]-N-[rac-(2S,3R,4R,5R)-2,3,4,5,6-pentahydroxyhexyl]acetamide] fall in the same range of EC50: 100 to 1000 nM for the first, 100 to 1000 nM for the second.

`COCc1cnc(N2CCC(CCCOc3ccc(CC(=O)N4CC(C(=O)NC[C@H](O)[C@@H](O)[C@H](O)[C@H](O)CO)C4)c(F)c3)CC2)nc1` (racemic) [Compound A12, 1-[2-[2-fluoro-4-[3-[1-[5-(methoxymethyl)pyrimidin-2-yl]-4-piperidyl]propoxy]phenyl]acetyl]-N-[rac-(2S,3R,4R,5R)-2,3,4,5,6-pentahydroxyhexyl]azetidine-3-carboxamide] and `O=C(Cc1ccc(OCCCC2CCN(c3ncc(Cl)cn3)CC2)cc1F)N1CC(CN[C@@H]2C[C@H](O)[C@@H](O)[C@H]2O)C1` (racemic) [Compound A21, 2-[4-[3-[1-(5-chloropyrimidin-2-yl)-4-piperidyl]propoxy]-2-fluoro-phenyl]-1-[3-[[[rac-(1R,2S,3R,4S)-2,3,4-trihydroxycyclopentyl]amino]methyl]azetidin-1-yl]ethanone] fall in the same range of EC50: 100 to 1000 nM for the first, 100 to 1000 nM for the second.

`COc1cnc(N2CCC(CCCOc3ccc(CC(=O)N4CC(CNC[C@H](O)[C@@H](O)[C@H](O)[C@H](O)CO)C4)c(F)c3)CC2)nc1` (racemic) [Compound A49, 2-[2-fluoro-4-[3-[1-(5-methoxypyrimidin-2-yl)-4-piperidyl]propoxy]phenyl]-1-[3-[rac-(2S,3R,4R,5R)-2,3,4,5,6-pentahydroxyhexyl]amino]methyl]azetidin-1-yl]ethanone] and `CCOc1cnc(N2CCC(CCCOc3ccc(CC(=O)N4CC(CNC[C@H](O)[C@@H](O)[C@H](O)[C@H](O)CO)C4)c(F)c3)CC2)nc1` (racemic) [Compound A50, 2-[4-[3-[1-(5-ethoxypyrimidin-2-yl)-4-piperidyl]propoxy]-2-fluoro-phenyl]-1-[3-[[[rac-(2S,3R,4R,5R)-2,3,4,5,6-pentahydroxyhexyl]amino]methyl]azetidin-1-yl]ethanone] fall in the same range of EC50: 100 to 1000 nM for the first, 100 to 1000 nM for the second.

`O=C(Cc1ccc(OCCCC2CCN(c3ncc(Cl)cn3)CC2)cc1F)N1CC(CN2C[C@H](O)[C@@H](O)C2)C1` (stereo in doubt) [Compound A18, 2-[4-[3-[1-(5-chloropyrimidin-2-yl)-4-piperidyl]propoxy]-2-fluoro-phenyl]-1-[3-[[rac-(3S,4S)-3,4-dihydroxypyrrolidin-1-yl]methyl]azetidin-1-yl]ethanone] and `O=C(Cc1ccc(OCCCC2CCN(c3ncc(Cl)cn3)CC2)cc1F)N1CC(CN2C[C@@H](O)[C@H](O)C2)C1` (stereo in doubt) [Compound A19, 2-[4-[3-[1-(5-chloropyrimidin-2-yl)-4-piperidyl]propoxy]-2-fluoro-phenyl]-1-[3-[[rac-(3R,4R)-3,4-dihydroxypyrrolidin-1-yl]methyl]azetidin-1-yl]ethanone] cannot be ordered by EC50: no more than 100 nM for the first, no more than 100 nM for the second.

`O=C(NC(CO)(CO)CO)C1CN(C(=O)Cc2c(F)cc(OCCCC3CCN(c4ncc(Cl)cn4)CC3)cc2F)C1` [Compound A1, 1-[2-[4-[3-[1-(5-chloropyrimidin-2-yl)-4-piperidyl]propoxy]-2,6-difluoro-phenyl]acetyl]-N-[2-hydroxy-1,1-bis(hydroxymethyl)ethyl]azetidine-3-carboxamide] and `O=C(NC(CO)CO)C1CN(C(=O)Cc2ccc(OCCCC3CCN(c4ncc(Cl)cn4)CC3)cc2F)C1` [Compound A3, 1-[2-[4-[3-[1-(5-chloropyrimidin-2-yl)-4-piperidyl]propoxy]-2-fluoro-phenyl]acetyl]-N-[2-hydroxy-1-(hydroxymethyl)ethyl]azetidine-3-carboxamide] cannot be ordered by EC50: no more than 100 nM for the first, 100 to 1000 nM for the second.

`O=C(NC(CO)(CO)CO)C1CN(C(=O)Cc2ccc(OCCCC3CCN(c4ncc(Cl)cn4)CC3)cc2F)C1` [Compound A4, 1-[2-[4-[3-[1-(5-chloropyrimidin-2-yl)-4-piperidyl]propoxy]-2-fluoro-phenyl]acetyl]-N-[2-hydroxy-1,1-bis(hydroxymethyl)ethyl]azetidine-3-carboxamide] and `O=C(NCC(O)(CO)CO)C1CN(C(=O)Cc2ccc(OCCCC3CCN(c4ncc(Cl)cn4)CC3)cc2F)C1` [Compound A5, 1-[2-[4-[3-[1-(5-chloropyrimidin-2-yl)-4-piperidyl]propoxy]-2-fluoro-phenyl]acetyl]-N-[2,3-dihydroxy-2-(hydroxymethyl)propyl]azetidine-3-carboxamide] cannot be ordered by EC50: no more than 100 nM for the first, no more than 100 nM for the second.

`O=C(CC1CN(C(=O)Cc2ccc(OCCCC3CCN(c4ncc(Cl)cn4)CC3)cc2F)C1)NC(CO)(CO)CO` [Compound A7, 2-[1-[2-[4-[3-[1-(5-chloropyrimidin-2-yl)-4-piperidyl]propoxy]-2-fluoro-phenyl]acetyl]azetidin-3-yl]-N-[2-hydroxy-1,1-bis(hydroxymethyl)ethyl]acetamide] and `O=C(CC1CN(C(=O)Cc2ccc(OCCCC3CCN(c4ncc(Cl)cn4)CC3)cc2F)C1)NCC(O)(CO)CO` [Compound A8, 2-[1-[2-[4-[3-[1-(5-chloropyrimidin-2-yl)-4-piperidyl]propoxy]-2-fluoro-phenyl]acetyl]azetidin-3-yl]-N-[2,3-dihydroxy-2-(hydroxymethyl)propyl]acetamide] fall in the same range of EC50: 100 to 1000 nM for the first, 100 to 1000 nM for the second.

`O=C(CC1CN(C(=O)Cc2c(F)cc(OCCCC3CCN(c4ncc(Cl)cn4)CC3)cc2F)C1)NCC(O)(CO)CO` [Compound A9, 2-[1-[2-[4-[3-[1-(5-chloropyrimidin-2-yl)-4-piperidyl]propoxy]-2,6-difluoro-phenyl]acetyl]azetidin-3-yl]-N-[2,3-dihydroxy-2-(hydroxymethyl)propyl]acetamide] and `O=C(Cc1ccc(OCCCC2CCN(c3ncc(Cl)cn3)CC2)cc1F)N1CC(CNC[C@H](O)[C@@H](O)[C@H](O)[C@H](O)CO)C1` [Compound A14, 2-[4-[3-[1-(5-chloropyrimidin-2-yl)-4-piperidyl]propoxy]-2-fluoro-phenyl]-1-[3-[[[(2S,3R,4R,5R)-2,3,4,5,6-pentahydroxyhexyl]amino]methyl]azetidin-1-yl]ethanone] cannot be ordered by EC50: no more than 100 nM for the first, 100 to 1000 nM for the second.

`O=C(Cc1ccc(OCCCC2CCN(c3ncc(Cl)cn3)CC2)cc1F)N1CC(CNCC(O)(CO)CO)C1` [Compound A15, 2-[4-[3-[1-(5-chloropyrimidin-2-yl)-4-piperidyl]propoxy]-2-fluoro-phenyl]-1-[3-[[[2,3-dihydroxy-2-(hydroxymethyl)propyl]amino]methyl]azetidin-1-yl]ethanone] and `O=C(Cc1ccc(OCCCC2CCN(c3ncc(Cl)cn3)CC2)cc1F)N1CC(CNC(CO)(CO)CO)C1` [Compound A16, 2-[4-[3-[1-(5-chloropyrimidin-2-yl)-4-piperidyl]propoxy]-2-fluoro-phenyl]-1-[3-[[[2-hydroxy-1,1-bis(hydroxymethyl)ethyl]amino]methyl]azetidin-1-yl]ethanone] cannot be ordered by EC50: no more than 100 nM for the first, no more than 100 nM for the second.

`O=C(Cc1ccc(OCCCC2CCN(c3ncc(Cl)cn3)CC2)cc1F)N1CC(CNCC(CO)CO)C1` [Compound A17] and `O=C(Cc1ccc(OCCCC2CCN(c3ncc(Cl)cn3)CC2)cc1F)N1CC(CN2C[C@@H](O)[C@@H](O)C2)C1` [Compound A20, 2-[4-[3-[1-(5-chloropyrimidin-2-yl)-4-piperidyl]propoxy]-2-fluoro-phenyl]-1-[3-[rac-(3S,4R)-3,4-dihydroxypyrrolidin-1-yl]methyl]azetidin-1-yl]ethanone] cannot be ordered by EC50: no more than 100 nM for the first, no more than 100 nM for the second.
